By viability is commonly meant a read-out of living cells in per cent, often relative to untreated cells.

This note sets out measurements from patent publication US10105357B2, “Indication of antibiotic drugs for preparation of cancer inhibition pharmaceutical composition” (LAUNX BIOMEDICAL CO., LTD., priority 2014, dated 2018).

Counter-ions that a name gives are not always drawn. Like-named read-outs stand apart in the source and are kept apart here.

What all share (assay type): cell-based, human
One series concerns cancer cell lines. The series is described as follows: Cell viability analysis (WST-1) on cancer cell lines. Conditions: drug 10 μM, 72 hours; for inhibition effect on different cancer cell lines: WST-1, Table 3; for Inhibitory effect on cancer cell line: WST-1, OD450 nm, Table 2: drugs which do not have significant inhibitory effect.
In series [1] the test system is MCF7 (Mammary Gland, Adenocarcinoma). In words: Cell viability analysis, breast cancer MCF7. Conditions: for viability at 10 µM: Homo sapiens, MCF7, 72 h.
The subject of series [2] is HL-60 (Acute Promyelocytic Leukemia). In words: Cell viability analysis, leukemia HL-60. Conditions: for viability at 10 µM: Homo sapiens, HL-60, 72 h.
For series [3], the system named is A375 (Amelanotic Melanoma). The series is described as follows: Cell viability analysis, skin cancer A375. Conditions: for viability at 10 µM: Homo sapiens, A-375, 72 h.
The subject of series [4] is MKN-45 (Gastric Adenocarcinoma). The series is described as follows: Cell viability analysis, gastric cancer MKN-45. As to conditions: for viability at 10 µM: Homo sapiens, MKN-45, 72 h.
The subject of series [5] is HepG2 (Hepatocellular Carcinoma). In words: Cell viability analysis, hepatic cancer HepG2. Conditions: for viability at 10 µM: Homo sapiens, HepG2, 72 h.
For series [6], the system named is HI650 (Lung Adenocarcinoma). In words: Cell viability analysis, lung cancer HI650. Conditions: for viability at 10 µM: Homo sapiens, NCI-H1650, 72 h.
The test system of series [7] is TSGH-8301 (Urinary Bladder Carcinoma). The series is described as follows: Cell viability analysis, bladder cancer TSGH-8301. As to conditions: for viability at 10 µM: Homo sapiens, 72 h.
The subject of series [8] is AGS (Gastric Adenocarcinoma). In words: Cell viability analysis, gastric cancer AGS. Conditions: for viability at 10 µM: Homo sapiens, 72 h.
In series [9] the test system is LoVo (Colorectal Adenocarcinoma). The series is described as follows: Cell viability analysis, colon cancer LoVo. Conditions: for viability at 10 µM: Homo sapiens, LoVo, 72 h, read-out: cell viability (survival rate), LoVo, drug 10 μM, 72 hours, WST-1, OD450 nm.
The test system of series [10] is HeLa (Cervix Adenocarcinoma). In words: Cell viability analysis, cervical cancer HeLa. Conditions: for viability at 10 µM: Homo sapiens, HeLa, 72 h.
For series [11], the system named is A549 (Lung Adenocarcinoma). In words: Cell viability analysis, lung cancer A549. Conditions: for viability at 10 µM: Homo sapiens, A549, 72 h.
Series [12] deals with PC3 (p53−) (Prostate Adenocarcinoma). In words: Cell viability analysis, prostate cancer PC3. As to conditions: for viability at 10 µM: Homo sapiens, 72 h.
Where [13] appears, read: drug 10 μM, 72 hours, WST-1, OD450 nm, read-out: cell viability (survival rate), MCF7.
The mark [14] stands for this setting: drug 10 μM, 72 hours, WST-1, OD450 nm, read-out: cell viability (survival rate), HL-60.
The mark [15] stands for this setting: drug 10 μM, 72 hours, WST-1, OD450 nm, read-out: cell viability (survival rate), A375.
Where [16] appears, read: drug 10 μM, 72 hours, WST-1, OD450 nm, read-out: cell viability (survival rate), MKN-45.
The mark [17] stands for this setting: drug 10 μM, 72 hours, WST-1, OD450 nm, read-out: cell viability (survival rate), HepG2.
The mark [18] stands for this setting: drug 10 μM, 72 hours, WST-1, OD450 nm, read-out: cell viability (survival rate), H1650.
[19] abbreviates: drug 10 μM, 72 hours, WST-1, OD450 nm, read-out: cell viability (survival rate), TSGH.
Where [20] appears, read: drug 10 μM, 72 hours, WST-1, OD450 nm, read-out: cell viability (survival rate), AGS.
Setting [21] is: drug 10 μM, 72 hours, WST-1, OD450 nm, read-out: cell viability (survival rate), HeLa.
[22] abbreviates: drug 10 μM, 72 hours, WST-1, OD450 nm, read-out: cell viability (survival rate), A549.
[23] abbreviates: drug 10 μM, 72 hours, WST-1, OD450 nm, read-out: cell viability (survival rate), PC3.
Where [24] appears, read: drug 10 μM, 72 hours, WST-1, OD450 nm.

In the case of `NCC[C@H](O)C(=O)N[C@@H]1C[C@H](N)[C@@H](O[C@H]2O[C@H](CN)[C@@H](O)[C@H](O)[C@H]2O)[C@H](O)[C@H]1O[C@H]1O[C@H](CO)[C@@H](O)[C@H](N)[C@H]1O.O=S(=O)(O)O.O=S(=O)(O)O` [Amikacin sulfate], the “inhibition effect on different cancer cell lines” value in the series with cancer cell lines is listed as “significant inhibition effect”.
As to `CO/N=C(\C(=O)N[C@@H]1C(=O)N2C(C(=O)O)=C(Cn3ccc(=N)n3CCO)CS[C@H]12)c1csc(N)n1.O=S(=O)(O)O` [Cefoselis sulfate], in the series with cancer cell lines, the “Inhibitory effect on cancer cell line” value is reported as 0 and the “inhibition effect on different cancer cell lines” value is “significant inhibition effect”.
Turning to `Cl.NC1CCN(c2c(F)cc3c(=O)c(C(=O)O)cn(C4CC4)c3c2Cl)C1` (stereo not shown) [Clinafoxacin HCl], the “inhibition effect on different cancer cell lines” value in the series on cancer cell lines is recorded as “significant inhibition effect”.
Regarding `CCCCCCCCCCCCCCCC(=O)O[C@@H]1[C@@H](O)[C@@H](O)[C@@H]([C@H](NC(=O)[C@@H]2C[C@@H](CCC)CN2C)[C@H](C)Cl)O[C@@H]1SC.Cl` [Clindamycin palmitate HCl], the “inhibition effect on different cancer cell lines” value in the series with cancer cell lines was “significant inhibition effect”.
Still for that read-out and setting: with `N[C@@H]1CONC1=O` [D-Cycloserine] the entry was “significant inhibition effect”; with `CC(C)CN(C[C@@H](O)[C@H](Cc1ccccc1)NC(=O)O[C@H]1CO[C@H]2OCC[C@H]21)S(=O)(=O)c1ccc(N)cc1.CCO` [Darunavir Ethanolate (Prezista), Darunavir Ethanolate], “significant inhibition effect”.
Same read-out and setting: in the case of `CCn1cc(C(=O)O)c(=O)c2cc(F)c(N3CCNC(C)C3)c(F)c21` (stereo not shown) [Lomefloxacin hydrochloride (Maxaquin), Lomefloxacin hydrochloride] it was “significant inhibition effect”.
Regarding `CCN[C@@H]1C[C@H](N)[C@@H](O[C@H]2OC(CN)=CC[C@H]2N)[C@H](O)[C@H]1O[C@H]1OC[C@](C)(O)[C@H](NC)[C@H]1O.CCN[C@@H]1C[C@H](N)[C@@H](O[C@H]2OC(CN)=CC[C@H]2N)[C@H](O)[C@H]1O[C@H]1OC[C@](C)(O)[C@H](NC)[C@H]1O.O=S(=O)(O)O.O=S(=O)(O)O.O=S(=O)(O)O.O=S(=O)(O)O.O=S(=O)(O)O` [Netilmicin Sulfate], in the series with cancer cell lines, the “Inhibitory effect on cancer cell line” value was found to be 0 and the “inhibition effect on different cancer cell lines” value is reported as “significant inhibition effect”.
Turning to `Cc1nccn1CC1CCc2c(c3ccccc3n2C)C1=O` (stereo not shown) [Ondansetron hydrochloride (Zofran), Ondansetron hydrochloride], the “inhibition effect on different cancer cell lines” value in the series with cancer cell lines is listed as “significant inhibition effect”.
Still for that read-out and setting: with `NNC(=O)c1ccncc1.Nc1ccc(C(=O)O)c(O)c1` [Pasiniazid] the entry was “significant inhibition effect”; with `CCn1cc(C(=O)O)c(=O)c2cc(F)c(N3CCN(C)CC3)cc21` [Pefloxacin mesylate], “significant inhibition effect”.
`NC(=O)c1cnccn1` [Pyrazinamide (Pyrazinoic acid amide), Pyrazinamide]: in the series with cancer cell lines, the “inhibition effect on different cancer cell lines” value was “significant inhibition effect”.
Still for that read-out and setting: with `CC1(C)[C@H](C(=O)[O-])N2C(=O)C[C@H]2S1(=O)=O.[Na+]` [Sulbactam sodium (Unasyn), Sulbactam sodium] the entry was “significant inhibition effect”.
`Clc1ccc(CSC(Cn2ccnc2)c2ccc(Cl)cc2Cl)cc1` (stereo not shown) [Sulconazole Nitrate]: the viability at 10 µM is 44.4% in [1] (read-out: cell viability (survival rate), MCF7, drug 10 μM, 72 hours, WST-1, OD450 nm); 64.1% in [2] (read-out: cell viability (survival rate), HL-60, drug 10 μM, 72 hours, WST-1, OD450 nm); 44.9% in [3] (read-out: cell viability (survival rate), A375, drug 10 μM, 72 hours, WST-1, OD450 nm); 53.2% in [4] (read-out: cell viability (survival rate), MKN-45, drug 10 μM, 72 hours, WST-1, OD450 nm); 88.2% in [5] (read-out: cell viability (survival rate), HepG2, drug 10 μM, 72 hours, WST-1, OD450 nm); 63.4% in series [6] (read-out: cell viability (survival rate), H1650, drug 10 μM, 72 hours, WST-1, OD450 nm). For the same compound, the viability at 10 µM amounted to 55% in series [7] (read-out: cell viability (survival rate), TSGH, drug 10 μM, 72 hours, WST-1, OD450 nm); 83.1% in [8] (read-out: cell viability (survival rate), AGS, drug 10 μM, 72 hours, WST-1, OD450 nm); 73.6% in series [9]; 62.1% in series [10] (read-out: cell viability (survival rate), HeLa, drug 10 μM, 72 hours, WST-1, OD450 nm); 50.7% in [11] (read-out: cell viability (survival rate), A549, drug 10 μM, 72 hours, WST-1, OD450 nm); 65.7% in [12] (read-out: cell viability (survival rate), PC3, drug 10 μM, 72 hours, WST-1, OD450 nm).
As for `CN(C/C=C/C#CC(C)(C)C)Cc1cccc2ccccc12` [Terbinafine (Lamisil, Terbinex), Terbinafine], the viability at 10 µM in [1] (setting [13]) stood at 104%; in series [2] (setting [14]), 95.2%; in series [3] (setting [15]) it was 99.7%; in series [4] (setting [16]) it was 143%; in series [5] (setting [17]), 98.3%; in series [6] (setting [18]) it was 104%. Also, the viability at 10 µM was 109% in series [7] (setting [19]); 137% in series [8] (setting [20]); 94% in series [9]; 65.2% in series [10] (setting [21]); 115% in series [11] (setting [22]); 140% in series [12] (setting [23]).
For `CN(C/C=C/C#CC(C)(C)C)Cc1cccc2ccccc12.Cl` [Terbinafine HCl (Lamisil)], the “cell viability (survival rate), MCF7” value in series [1] (setting [24]) is recorded as 67.7. In addition, the “cell viability (survival rate), HL-60” value in series [2] (setting [24]) is listed as 86.5. The “cell viability (survival rate), A375” value in series [3] (setting [24]) is listed as 92.5. The “cell viability (survival rate), MKN-45” value in [4] (setting [24]) is 81.8. The “cell viability (survival rate), HepG2” value in series [5] (setting [24]) was 91.1. Further, in [6] (setting [24]), the “cell viability (survival rate), H1650” value came out at 40.6. In series [7] (setting [24]), the “cell viability (survival rate), TSGH” value is 50.6. Moreover, in series [8] (setting [24]), the “cell viability (survival rate), AGS” value came to 90.6. Further, the “cell viability (survival rate), LoVo” value in series [9] (setting [24]) stood at 71.4. The “cell viability (survival rate), HeLa” value in series [10] (setting [24]) is on record as 75.4. Besides, the “cell viability (survival rate), A549” value in [11] (setting [24]) is 52.3. In addition, the “cell viability (survival rate), PC3” value in series [12] (setting [24]) is 70.8.
For the compound `CN(C/C=C/C#CC(C)(C)C)Cc1cccc2ccccc12` [Terbinafine hydrochloride (Lamisil), Terbinafine hydrochloride], the “inhibition effect on different cancer cell lines” value in the series with cancer cell lines is listed as “significant inhibition effect”.
As to `CC(=O)[C@@]1(O)CC[C@H]2[C@@H]3CCC4=CC(=O)CCC4=C3[C@@H](c3ccc(N(C)C)cc3)C[C@@]21C` [Ulipristal], the viability at 10 µM in [1] (setting [13]) amounted to 65.4%; in [2] (setting [14]), 93.8%; in series [3] (setting [15]), 48.2%; in series [4] (setting [16]), 36.1%; in series [5] (setting [17]), 69%; in series [6] (setting [18]), 40.3%. Besides, the viability at 10 µM in series [7] (setting [19]) was 55.8%; in series [8] (setting [20]), 55.4%; in series [9], 67.8%; in series [10] (setting [21]) it was 72.4%; in series [11] (setting [22]), 59.9%; in [12] (setting [23]), 49.3%.
As for Bismuth Subcitrate Potassium, in the series on cancer cell lines, the “Inhibitory effect on cancer cell line” value was 0 and the “inhibition effect on different cancer cell lines” value is “significant inhibition effect”.
In the case of Dabigatran [BIBR-1048 (Dabigatran)], the “inhibition effect on different cancer cell lines” value with cancer cell lines was “significant inhibition effect”.
In the case of Meclocycline Sulfosalicylate, the “inhibition effect on different cancer cell lines” value in the series on cancer cell lines is on record as “significant inhibition effect”.
Same read-out and setting: with Spiramycin the entry was “significant inhibition effect”; with Teicoplanin, “significant inhibition effect”.
